{"source": "PubChem BioAssay (NCI)", "test_in_all_cases": "NCI anticancer screen, dose series, 48 h", "key": {"[1]": {"system": "HL-60(TB) leukemia"}, "[2]": {"system": "PC-3 prostate"}, "[3]": {"system": "OVCAR-3 ovarian"}, "[4]": {"system": "UACC-62 melanoma"}, "[5]": {"system": "SR leukemia"}, "[6]": {"system": "NCI-H522 lung"}, "[7]": {"system": "HCT-116 colon"}, "[8]": {"system": "MOLT-4 leukemia"}, "[9]": {"system": "NCI-H23 lung"}, "[10]": {"system": "SW-620 colon"}, "[11]": {"system": "K-562 leukemia"}, "[12]": {"system": "UACC-257 melanoma"}, "[13]": {"system": "HOP-62 NSCLC"}, "[14]": {"system": "BT-549 breast"}, "[15]": {"system": "COLO 205 colon"}, "[16]": {"system": "LOX IMVI melanoma"}, "[17]": {"system": "MDA-MB-435"}, "[18]": {"system": "A498 renal"}, "[19]": {"system": "SK-MEL-28 melanoma"}, "[20]": {"system": "T-47D breast"}, "[21]": {"system": "TK-10 renal"}, "[22]": {"system": "SK-MEL-5 melanoma"}, "[23]": {"system": "IGROV1 ovarian"}, "[24]": {"system": "RPMI-8226 leukemia"}, "[25]": {"system": "MALME-3M melanoma"}, "[26]": {"system": "DU-145 prostate"}, "[27]": {"system": "HOP-92 NSCLC"}, "[28]": {"system": "ACHN renal"}, "[29]": {"system": "EKVX NSCLC"}, "[30]": {"system": "786-0 renal"}, "[31]": {"system": "UO-31 renal"}, "[32]": {"system": "CCRF-CEM leukemia"}, "[33]": {"system": "SK-MEL-2 melanoma"}, "[34]": {"system": "U251 CNS"}}, "note": "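Each compound was tested at five concentrations against cells in 96-well plates for 48 hours. Definition used: TGI = concentration required for complete inhibition of growth.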"}
{"smiles": "CCCCCCCCCCCCC/C=C/[C@H]1[C@@H](C(=O)OC)N1S(=O)c1ccc(C)cc1", "note": "(some centres undefined)", "values": [{"measurement": "TGI", "setting": "[1]", "value": 81.3, "unit": "µM"}, {"measurement": "TGI", "setting": "[2]", "value": "> 100", "unit": "µM"}, {"measurement": "TGI", "setting": "[3]", "value": "> 100", "unit": "µM"}, {"measurement": "TGI", "setting": "[4]", "value": "> 100", "unit": "µM"}, {"measurement": "TGI", "setting": "[5]", "value": "> 100", "unit": "µM"}, {"measurement": "TGI", "setting": "[6]", "value": "> 100", "unit": "µM"}, {"measurement": "TGI", "setting": "[7]", "value": "> 100", "unit": "µM"}, {"measurement": "TGI", "setting": "[8]", "value": "> 100", "unit": "µM"}, {"measurement": "TGI", "setting": "[9]", "value": "> 100", "unit": "µM"}, {"measurement": "TGI", "setting": "[10]", "value": "> 100", "unit": "µM"}, {"measurement": "TGI", "setting": "[11]", "value": "> 100", "unit": "µM"}, {"measurement": "TGI", "setting": "[12]", "value": "> 100", "unit": "µM"}, {"measurement": "TGI", "setting": "[13]", "value": "> 100", "unit": "µM"}, {"measurement": "TGI", "setting": "[14]", "value": "> 100", "unit": "µM"}, {"measurement": "TGI", "setting": "[15]", "value": "> 100", "unit": "µM"}, {"measurement": "TGI", "setting": "[16]", "value": "> 100", "unit": "µM"}, {"measurement": "TGI", "setting": "[17]", "value": "> 100", "unit": "µM"}, {"measurement": "TGI", "setting": "[18]", "value": "> 100", "unit": "µM"}, {"measurement": "TGI", "setting": "[19]", "value": "> 100", "unit": "µM"}, {"measurement": "TGI", "setting": "[20]", "value": "> 100", "unit": "µM"}, {"measurement": "TGI", "setting": "[21]", "value": "> 100", "unit": "µM"}, {"measurement": "TGI", "setting": "[22]", "value": "> 100", "unit": "µM"}, {"measurement": "TGI", "setting": "[23]", "value": "> 100", "unit": "µM"}, {"measurement": "TGI", "setting": "[24]", "value": "> 100", "unit": "µM"}, {"measurement": "TGI", "setting": "[25]", "value": "> 100", "unit": "µM"}, {"measurement": "TGI", "setting": "[26]", "value": "> 100", "unit": "µM"}, {"measurement": "TGI", "setting": "[27]", "value": "> 100", "unit": "µM"}, {"measurement": "TGI", "setting": "[28]", "value": "> 100", "unit": "µM"}, {"measurement": "TGI", "setting": "[29]", "value": "> 100", "unit": "µM"}, {"measurement": "TGI", "setting": "[30]", "value": "> 100", "unit": "µM"}, {"measurement": "TGI", "setting": "[31]", "value": "> 100", "unit": "µM"}, {"measurement": "TGI", "setting": "[32]", "value": "> 100", "unit": "µM"}, {"measurement": "TGI", "setting": "[33]", "value": "> 100", "unit": "µM"}, {"measurement": "TGI", "setting": "[34]", "value": "> 100", "unit": "µM"}]}
